# Test results published in patent publication US9073855B2, “BCL-2 selective apoptosis-inducing agents for the treatment of cancer and immune diseases” (AbbVie Inc., priority 2008, dated 2015).
# Key:
# GST-Bcl-XL = GST-Bcl-XL (Homo sapiens, UniProt Q07817); experiment: TR-FRET binding assay, GST-Bcl-XL with F-Bak peptide probe; conditions: TR-FRET Binding Affinity, GST-Bcl-XL, F-Bak peptide probe
# Procedure, shortened: (§1)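 Displacement of a fluorescein-labelled Bak peptide from the GST-tagged protein was followed by time-resolved FRET with a terbium anti-GST donor after 3 h incubation at room temperature. Inhibition constants were calculated with Wang's equation.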
# GST-Bcl-2 = GST-Bcl-2 (Homo sapiens, UniProt P10415); experiment: TR-FRET binding assay, GST-Bcl-2 with F-Bak peptide probe; conditions: for Ki: TR-FRET Binding Affinity, GST-Bcl-2, F-Bak peptide probe; for Binding selectivity ratio (Bcl-XL Ki/Bcl-2 Ki): ratio of TR-FRET Ki values, Bcl-XL over Bcl-2
# Sequence of GST-Bcl-2 (P10415 whole entry): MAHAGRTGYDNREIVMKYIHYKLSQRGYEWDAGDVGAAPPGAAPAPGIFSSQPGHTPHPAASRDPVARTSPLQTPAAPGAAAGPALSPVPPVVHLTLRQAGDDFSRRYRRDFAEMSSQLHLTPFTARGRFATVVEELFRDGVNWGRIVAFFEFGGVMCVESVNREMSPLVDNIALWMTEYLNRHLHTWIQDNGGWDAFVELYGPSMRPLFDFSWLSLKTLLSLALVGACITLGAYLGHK
# Procedure, shortened: as §1
# FL5.12/Bcl-2 cells = experiment: FL5.12/Bcl-2 cell viability assay under IL-3 withdrawal (CellTitre Glo); assay type: cell-based, murine; conditions: Mus musculus, IL-3 withdrawn 48 hrs, then 24 hrs with compound
# Procedure, shortened: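 Bcl-2-overexpressing murine FL5.12 transfectants underwent IL-3 removal for 48 hrs before a 24 hr compound treatment. Cell viability was quantified with CellTitre Glo.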
# Sequence of GST-Bcl-XL (Q07817 whole entry): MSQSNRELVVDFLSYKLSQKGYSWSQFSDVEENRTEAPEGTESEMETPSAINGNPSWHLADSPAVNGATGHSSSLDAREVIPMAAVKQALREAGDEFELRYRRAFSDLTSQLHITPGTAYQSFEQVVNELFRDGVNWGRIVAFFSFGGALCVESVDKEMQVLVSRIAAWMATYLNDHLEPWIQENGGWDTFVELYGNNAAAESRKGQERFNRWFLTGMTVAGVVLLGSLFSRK
Structure (SMILES),Ki (GST-Bcl-XL) [nM],Ki (GST-Bcl-2) [nM],EC50 (FL5.12/Bcl-2 cells) [nM],Binding selectivity ratio (Bcl-XL Ki/Bcl-2 Ki) (GST-Bcl-2)
"CC1(C)CCC(CN2CCN(c3ccc(C(=O)NS(=O)(=O)c4ccc(NCC56CC7CC(C5)C(O)[C@H](C7)C6)c([N+](=O)[O-])c4)c(Oc4ccc5[nH]ccc5c4)c3)CC2)=C(c2ccc(Cl)cc2)C1 (stereo partly drawn) [Example 321, 4-(4-{[2-(4-chlorophenyl)-4,4-dimethylcyclohex-1-en-1-yl]methyl}piperazin-1-yl)-N-{[4-({[(3R)-4-hydroxy-1-adamantyl]methyl}amino)-3-nitrophenyl]sulfonyl}-2-(1H-indol-5-yloxy)benzamide]",> 660,0.689,29.1,–
"CC1(C)CCC(CN2CCN(c3ccc(C(=O)NS(=O)(=O)c4ccc(N[C@H]5CC[C@H](N6CCOCC6)CC5)c([N+](=O)[O-])c4)c(Oc4cccc5[nH]ncc45)c3)CC2)=C(c2ccc(Cl)cc2)C1 [Example 402, Trans-4-(4-{[2-(4-chlorophenyl)-4,4-dimethylcyclohex-1-en-1-yl]methyl}piperazin-1-yl)-2-(1H-indazol-4-yloxy)-N-({4-[(4-morpholin-4-ylcyclohexyl)amino]-3-nitrophenyl}sulfonyl)benzamide]",4.15,0.03,13.4,137.4
"CC1(C)CCC(CN2CCN(c3ccc(C(=O)NS(=O)(=O)c4cc(F)c(NCC5CCOCC5)cc4Cl)c(Oc4ccc5[nH]ccc5c4)c3)CC2)=C(c2ccc(Cl)cc2)C1 [Example 379, N-({2-chloro-5-fluoro-4-[(tetrahydro-2H-pyran-4-ylmethyl)amino]phenyl}sulfonyl)-4-(4-{[2-(4-chlorophenyl)-4,4-dimethylcyclohex-1-en-1-yl]methyl}piperazin-1-yl)-2-(1H-indol-5-yloxy)benzamide]",> 660,256,> 500,–
"CC1(C)CCC(CN2CCN(c3ccc(C(=O)NS(=O)(=O)c4ccc(CCC5CCOCC5)c([N+](=O)[O-])c4)c(Oc4ccc5[nH]ccc5c4)c3)CC2)=C(c2ccc(Cl)cc2)C1 [Example 296, 4-(4-{[2-(4-chlorophenyl)-4,4-dimethylcyclohex-1-en-1-yl]methyl}piperazin-1-yl)-2-(1H-indol-5-yloxy)-N-{[3-nitro-4-(2-tetrahydro-2H-pyran-4-ylethyl)phenyl]sulfonyl}benzamide]",> 660,0.651,182,–
"COCCOCCNc1ccc(S(=O)(=O)NC(=O)c2ccc(N3CCN(CC4=C(c5ccc(Cl)cc5)CC(C)(C)CC4)CC3)cc2Oc2cccc3[nH]ccc23)cc1[N+](=O)[O-] [Example 293, 4-(4-{[2-(4-chlorophenyl)-4,4-dimethylcyclohex-1-en-1-yl]methyl}piperazin-1-yl)-2-(1H-indol-4-yloxy)-N-[(4-{[2-(2-methoxyethoxy)ethyl]amino}-3-nitrophenyl)sulfonyl]benzamide]",260,0.516,68.1,–
"CC(C)n1cc(CN2CCN(c3ccc(C(=O)NS(=O)(=O)c4ccc(NCC5CCOCC5)c([N+](=O)[O-])c4)c(Oc4ccc5[nH]ccc5c4)c3)CC2)c(-c2ccc(Cl)cc2)cc1=O [Example 307, 4-(4-{[4-(4-chlorophenyl)-1-isopropyl-6-oxo-1,6-dihydropyridin-3-yl]methyl}piperazin-1-yl)-2-(1H-indol-5-yloxy)-N-({3-nitro-4-[(tetrahydro-2H-pyran-4-ylmethyl)amino]phenyl}sulfonyl)benzamide]",> 660,3.73,> 500,–
"CC1(C)CCC(CN2CCN(c3ccc(C(=O)NS(=O)(=O)c4ccc(NC5CCN(c6nccs6)CC5)c([N+](=O)[O-])c4)c(Oc4ccc5[nH]ccc5c4)c3)CC2)=C(c2ccc(Cl)cc2)C1 [Example 212, 4-(4-{[2-(4-chlorophenyl)-4,4-dimethylcyclohex-1-en-1-yl]methyl}piperazin-1-yl)-2-(1H-indol-5-yloxy)-N-[(3-nitro-4-{[1-(1,3-thiazol-2-yl)piperidin-4-yl]amino}phenyl)sulfonyl]benzamide]",> 660,0.737,> 500,–
"CC1(C)CCC(CN2CCN(c3ccc(C(=O)NS(=O)(=O)c4ccc(N[C@@H]5CCN(CC(F)F)C5)c([N+](=O)[O-])c4)c(Oc4cccc5[nH]cnc45)c3)CC2)=C(c2ccc(Cl)cc2)C1 [Example 407, 2-(1H-benzimidazol-4-yloxy)-4-(4-{[2-(4-chlorophenyl)-4,4-dimethylcyclohex-1-en-1-yl]methyl}piperazin-1-yl)-N-[(4-{[(3R)-1-(2,2-difluoroethyl)pyrrolidin-3-yl]amino}-3-nitrophenyl)sulfonyl]benzamide]",74.6,0.015,8.1,4930.6
"CC1(C)CCC(CN2CCN(c3ccc(C(=O)NS(=O)(=O)c4ccc(NC(CO)C5CCOCC5)c([N+](=O)[O-])c4)c(Oc4ccc5[nH]ccc5c4)c3)CC2)=C(c2ccc(Cl)cc2)C1 (centres unmarked) [Example 242, 4-(4-{[2-(4-chlorophenyl)-4,4-dimethylcyclohex-1-en-1-yl]methyl}piperazin-1-yl)-N-({4-[(2-hydroxy-1-tetrahydro-2H-pyran-4-ylethyl)amino]-3-nitrophenyl}sulfonyl)-2-(1H-indol-5-yloxy)benzamide]",> 660,1.8,165,–
"CCN(CC)C1CCC(Nc2ccc(S(=O)(=O)NC(=O)c3ccc(N4CCN(CC5=C(c6ccc(Cl)cc6)CC(C)(C)CC5)CC4)cc3Oc3cccc4[nH]ccc34)cc2[N+](=O)[O-])CC1 (centres unmarked) [Example 203, 4-(4-{[2-(4-chlorophenyl)-4,4-dimethylcyclohex-1-en-1-yl]methyl}piperazin-1-yl)-N-[(4-{[4-(diethylamino)cyclohexyl]amino}-3-nitrophenyl)sulfonyl]-2-(1H-indol-4-yloxy)benzamide]",4.3,0.031,22.3,–
"CC1(C)CCC(CN2CCN(c3ccc(C(=O)NS(=O)(=O)c4cnc(OCC5CCOCC5)c(C#N)c4)c(Oc4ccc5[nH]ccc5c4)c3)CC2)=C(c2ccc(Cl)cc2)C1 [Example 333, 4-(4-{[2-(4-chlorophenyl)-4,4-dimethylcyclohex-1-en-1-yl]methyl}piperazin-1-yl)-N-{[5-cyano-6-(tetrahydro-2H-pyran-4-ylmethoxy)pyridin-3-yl]sulfonyl}-2-(1H-indol-5-yloxy)benzamide]",> 660,0.089,109,–
"CC1(C)CCC(CN2CCN(c3ccc(C(=O)NS(=O)(=O)c4ccc(OCC5CCOCC5)c([N+](=O)[O-])c4)c(Oc4ccc5[nH]ccc5c4)c3)CC2)=C(c2ccc(Cl)cc2)C1 [Example 279, 4-(4-{[2-(4-chlorophenyl)-4,4-dimethylcyclohex-1-en-1-yl]methyl}piperazin-1-yl)-2-(1H-indol-5-yloxy)-N-{[3-nitro-4-(tetrahydro-2H-pyran-4-ylmethoxy)phenyl]sulfonyl}benzamide]",> 660,0.095,16.2,–
"CC1(C)CCC(CN2CCN(c3ccc(C(=O)NS(=O)(=O)c4cnc(OCCN5CCOCC5)c(C#N)c4)c(Oc4ccc5[nH]ccc5c4)c3)CC2)=C(c2ccc(Cl)cc2)C1 [Example 388, 4-(4-{[2-(4-chlorophenyl)-4,4-dimethylcyclohex-1-en-1-yl]methyl}piperazin-1-yl)-N-{[5-cyano-6-(2-morpholin-4-ylethoxy)pyridin-3-yl]sulfonyl}-2-(1H-indol-5-yloxy)benzamide]",34.8,0.188,82.9,–
